Experimental data reported in US10448639B2, “Fungicidal pyrazoles” (FMC CORPORATION, priority 2009, dated 2019).
Like-named read-outs stand apart in the source and are kept apart here.

Experiments:
Alternaria solani = experiment: Test C: tomato early blight, preventive spray on tomato seedlings, visual disease rating; details: for pest or weed control at 200 µg/mL: Alternaria solani, in Solanum lycopersicum, 168 h; for Test C rating (% disease control) / Test C disease control rating: tomato early blight, 100 = 100% disease control; for Test C disease control rating: 0 = no disease control relative to controls
Septoria tritici = experiment: Test G: wheat leaf blotch, preventive spray on wheat seedlings, visual disease rating; details: for pest or weed control at 200 µg/mL: Zymoseptoria tritici, in Triticum aestivum, 504 h; for Test G rating (% disease control) / Test G disease control rating: wheat leaf blotch, 100 = 100% disease control; for Test G disease control rating: sprayed the day before inoculation, 0 = no disease control relative to controls
[1] = system: Puccinia recondita f. sp. tritici; experiment: Test I: wheat leaf rust, preventive spray on wheat seedlings, visual disease rating; details: for pest or weed control at 200 µg/mL: 192 h; for Test I rating (% disease control) / Test I disease control rating: wheat leaf rust, 100 = 100% disease control; for Test I disease control rating: sprayed the day before inoculation, 0 = no disease control relative to controls
[2] = system: Erysiphe graminis f sp. tritici; experiment: Test J: wheat powdery mildew, preventive spray on wheat seedlings, visual disease rating; details: for pest or weed control at 200 µg/mL: Blumeria graminis, in Triticum aestivum, 192 h; for Test J rating (% disease control) / Test J disease control rating: wheat powdery mildew, 100 = 100% disease control; for Test J disease control rating: sprayed the day before inoculation, 0 = no disease control relative to controls
Botrytis cinerea = experiment: Test B: tomato Botrytis, preventive spray on tomato seedlings, visual disease rating; details: for pest or weed control at 200 µg/mL: Botrytis cinerea, in Solanum lycopersicum, 120 h; for Test B rating (% disease control) / Test B disease control rating: tomato Botrytis, 100 = 100% disease control; for Test B disease control rating: 0 = no disease control relative to controls
[3] = system: Puccinia recondita f. sp. tritici; experiment: Test H: wheat leaf rust, curative spray on inoculated wheat seedlings, visual disease rating; details: for pest or weed control at 200 µg/mL: 144 h; for Test H rating (% disease control) / Test H disease control rating: wheat leaf rust, 100 = 100% disease control; for Test H disease control rating: sprayed after inoculation, 0 = no disease control relative to controls
Septoria nodorum = experiment: Test F: Septoria glume blotch, preventive spray on wheat seedlings, visual disease rating; details: for pest or weed control at 200 µg/mL: Parastagonospora nodorum, in Triticum aestivum, 192 h; for Test F rating (% disease control) / Test F disease control rating: 100 = 100% disease control; for Test F disease control rating: 0 = no disease control relative to controls
[4] = 0 = no control relative to controls
[5] = preventive, 0 = no control relative to controls
[6] = curative, 0 = no control relative to controls
[7] = Septoria glume blotch, 0 = no control relative to controls
[8] = preventive spray, 0 = no control
[9] = Septoria glume blotch on wheat, preventive spray, 0 = no control

SMILES: Cc1nn(C)c(Nc2ccc(F)cc2Cl)c1-c1c(F)cccc1Cl [Compound 193, N-(2-chloro-4-fluorophenyl)-4-(2-chloro-6-fluorophenyl)-1,3-dimethyl-1H-pyrazol-5-amine]
- pest or weed control at 200 µg/mL (Alternaria solani; read-out: Test C rating (% disease control)): 100%
- pest or weed control at 200 µg/mL (Septoria tritici; read-out: Test G rating (% disease control)): 100%
- pest or weed control at 200 µg/mL ([1]; read-out: Test I rating (% disease control)): 99%
- pest or weed control at 200 µg/mL ([2]; read-out: Test J rating (% disease control)): 100%
- pest or weed control at 200 µg/mL (Botrytis cinerea; read-out: Test B rating (% disease control)): 99%
- pest or weed control at 200 µg/mL ([3]; read-out: Test H rating (% disease control)): 32%
- pest or weed control at 200 µg/mL (Septoria nodorum; read-out: Test F rating (% disease control)): 0%

SMILES: Cc1nn(C)c(Oc2c(F)cc(C#N)cc2F)c1-c1ccc(F)cc1F [compound 170]
- Test C rating (% disease control) (Alternaria solani; [4]): 99%
- Test G rating (% disease control) (Septoria tritici; [4]): 98%
- Test I rating (% disease control) [1, 5]: 100%
- Test J rating (% disease control) [2, 4]: 99%
- Test B rating (% disease control) (Botrytis cinerea; [4]): 100%
- Test H rating (% disease control) [3, 6]: 0%
- Test F rating (% disease control) (Septoria nodorum; [7]): 99%

SMILES: COc1ccc(Nc2c(-c3ccc(F)cc3Br)c(C)nn2C)c(Cl)c1 [compound 324]
- Test C disease control rating (Alternaria solani): 83%
- Test G disease control rating (Septoria tritici): 100%
- Test I disease control rating [1]: 99%
- Test J disease control rating [2]: 99%
- Test B disease control rating (Botrytis cinerea): 99%
- Test H disease control rating [3]: 63%
- Test F disease control rating (Septoria nodorum; Septoria glume blotch on wheat): 0%

SMILES: COc1cc(F)ccc1-c1c(C)nn(C)c1Oc1c(F)cc(C#N)cc1F [compound 89]
- Test C rating (% disease control) (Alternaria solani; [8]): 0%
- Test G rating (% disease control) (Septoria tritici; [8]): 99%
- Test I rating (% disease control) [1, 8]: 0%
- Test J rating (% disease control) [2, 8]: 97%
- Test B rating (% disease control) (Botrytis cinerea; [8]): 99%
- Test H rating (% disease control) ([3]; curative spray, 0 = no control): 0%
- Test F rating (% disease control) (Septoria nodorum; [9]): 0%

SMILES: COc1ccc(Nc2c(-c3c(Cl)cccc3Cl)c(C)nn2C)cc1 [compound 333]
- Test C disease control rating (Alternaria solani): 0%
- Test G disease control rating (Septoria tritici): 100%
- Test I disease control rating [1]: 74%
- Test J disease control rating [2]: 0%
- Test B disease control rating (Botrytis cinerea): 100%
- Test H disease control rating [3]: 9%
- Test F disease control rating (Septoria nodorum; Septoria glume blotch on wheat): 0%

SMILES: Cc1nn(C)c(Nc2ncc(F)cc2F)c1-c1c(F)cccc1Cl [compound 279]
- Test C rating (% disease control) (Alternaria solani; [4]): 99%
- Test G rating (% disease control) (Septoria tritici; [4]): 100%
- Test I rating (% disease control) [1, 5]: 98%
- Test J rating (% disease control) [2, 4]: 100%
- Test B rating (% disease control) (Botrytis cinerea; [4]): 100%
- Test H rating (% disease control) [3, 6]: 8%
- Test F rating (% disease control) (Septoria nodorum; [7]): 0%

SMILES: Cc1nn(C)c(Nc2c(F)cc(Cl)cc2F)c1-c1ccc(F)cc1F [Compound 357, N-(4-chloro-2,6-difluorophenyl)-4-(2,4-difluorophenyl)-1,3-dimethyl-1H-pyrazol-5-amine]
- pest or weed control at 200 µg/mL (Alternaria solani; read-out: Test C disease control rating): 86%
- pest or weed control at 200 µg/mL (Septoria tritici; read-out: Test G disease control rating): 100%
- pest or weed control at 200 µg/mL ([1]; read-out: Test I disease control rating): 99%
- pest or weed control at 200 µg/mL ([2]; read-out: Test J disease control rating): 100%
- pest or weed control at 200 µg/mL (Botrytis cinerea; read-out: Test B disease control rating): 100%
- pest or weed control at 200 µg/mL ([3]; read-out: Test H disease control rating): 0%
- pest or weed control at 200 µg/mL (Septoria nodorum; read-out: Test F disease control rating): 87%

SMILES: Cc1nn(C)c(Oc2ccc(C#N)cc2F)c1-c1c(F)cc(F)cc1F [compound 96]
- Test C rating (% disease control) (Alternaria solani; [8]): 99%
- Test G rating (% disease control) (Septoria tritici; [8]): 100%
- Test I rating (% disease control) [1, 8]: 99%
- Test J rating (% disease control) [2, 8]: 100%
- Test B rating (% disease control) (Botrytis cinerea; [8]): 99%
- Test H rating (% disease control) ([3]; curative spray, 0 = no control): 9%
- Test F rating (% disease control) (Septoria nodorum; [9]): 99%

SMILES: Cc1nn(C)c(Oc2ncc(F)cc2F)c1-c1ccc(F)cc1Cl [compound 189]
- Test C rating (% disease control) (Alternaria solani; [4]): 100%
- Test G rating (% disease control) (Septoria tritici; [4]): 100%
- Test I rating (% disease control) [1, 5]: 99%
- Test J rating (% disease control) [2, 4]: 98%
- Test B rating (% disease control) (Botrytis cinerea; [4]): 99%
- Test H rating (% disease control) [3, 6]: 99%
- Test F rating (% disease control) (Septoria nodorum; [7]): 80%

SMILES: Cc1nn(C)c(Nc2ccc(F)cc2Cl)c1-c1ccc(F)cc1F [compound 207]
- Test C rating (% disease control) (Alternaria solani; [4]): 93%
- Test G rating (% disease control) (Septoria tritici; [4]): 100%
- Test I rating (% disease control) [1, 5]: 99%
- Test J rating (% disease control) [2, 4]: 100%
- Test B rating (% disease control) (Botrytis cinerea; [4]): 100%
- Test H rating (% disease control) [3, 6]: 0%
- Test F rating (% disease control) (Septoria nodorum; [7]): 64%

SMILES: Cc1cccc(Oc2c(-c3c(F)cc(F)cc3F)c(C)nn2C)c1 [compound 219]
- Test C rating (% disease control) (Alternaria solani; [4]): 0%
- Test G rating (% disease control) (Septoria tritici; [4]): 0%
- Test I rating (% disease control) [1, 5]: 0%
- Test J rating (% disease control) [2, 4]: 0%
- Test B rating (% disease control) (Botrytis cinerea; [4]): 70%
- Test H rating (% disease control) [3, 6]: 17%
- Test F rating (% disease control) (Septoria nodorum; [7]): 0%

SMILES: Cc1nn(C)c(Nc2ccc(C#N)cc2F)c1-c1ccc(F)cc1F [compound 246]
- Test C rating (% disease control) (Alternaria solani; [4]): 51%
- Test G rating (% disease control) (Septoria tritici; [4]): 100%
- Test I rating (% disease control) [1, 5]: 80%
- Test J rating (% disease control) [2, 4]: 100%
- Test B rating (% disease control) (Botrytis cinerea; [4]): 99%
- Test H rating (% disease control) [3, 6]: 0%
- Test F rating (% disease control) (Septoria nodorum; [7]): 0%

SMILES: COc1cc(F)c(-c2c(C)nn(C)c2Oc2ccc(C)c(C#N)c2)c(F)c1 [compound 259]
- Test C rating (% disease control) (Alternaria solani; [4]): 9%
- Test G rating (% disease control) (Septoria tritici; [4]): 100%
- Test I rating (% disease control) [1, 5]: 86%
- Test J rating (% disease control) [2, 4]: 97%
- Test B rating (% disease control) (Botrytis cinerea; [4]): 98%
- Test H rating (% disease control) [3, 6]: 0%
- Test F rating (% disease control) (Septoria nodorum; [7]): 0%

SMILES: Cc1nn(C)c(Oc2ccc([N+](=O)[O-])cc2Cl)c1-c1c(F)cc(F)cc1F [compound 32]
- Test C rating (% disease control) (Alternaria solani; [8]): 0%
- Test G rating (% disease control) (Septoria tritici; [8]): 96%
- Test I rating (% disease control) [1, 8]: 99%
- Test J rating (% disease control) [2, 8]: 97%
- Test B rating (% disease control) (Botrytis cinerea; [8]): 99%
- Test H rating (% disease control) ([3]; curative spray, 0 = no control): 0%
- Test F rating (% disease control) (Septoria nodorum; [9]): 0%

SMILES: Cc1nn(C)c(Oc2c(F)cc(C#N)cc2F)c1-c1ccccc1Br [compound 272]
- Test C rating (% disease control) (Alternaria solani; [4]): 97%
- Test G rating (% disease control) (Septoria tritici; [4]): 99%
- Test I rating (% disease control) [1, 5]: 99%
- Test J rating (% disease control) [2, 4]: 99%
- Test B rating (% disease control) (Botrytis cinerea; [4]): 100%
- Test H rating (% disease control) [3, 6]: 0%
- Test F rating (% disease control) (Septoria nodorum; [7]): 99%

SMILES: COc1cccc(Nc2c(-c3c(F)cccc3F)c(C)nn2C)c1Cl [compound 289]
- Test C rating (% disease control) (Alternaria solani; [4]): 0%
- Test G rating (% disease control) (Septoria tritici; [4]): 99%
- Test I rating (% disease control) [1, 5]: 96%
- Test J rating (% disease control) [2, 4]: 97%
- Test B rating (% disease control) (Botrytis cinerea; [4]): 100%
- Test H rating (% disease control) [3, 6]: 0%
- Test F rating (% disease control) (Septoria nodorum; [7]): 0%

SMILES: Cc1nn(C)c(Nc2ncccc2Cl)c1-c1c(F)cc(F)cc1F [compound 241]
- Test C rating (% disease control) (Alternaria solani; [4]): 99%
- Test G rating (% disease control) (Septoria tritici; [4]): 100%
- Test I rating (% disease control) [1, 5]: 100%
- Test J rating (% disease control) [2, 4]: 100%
- Test B rating (% disease control) (Botrytis cinerea; [4]): 99%
- Test H rating (% disease control) [3, 6]: 97%
- Test F rating (% disease control) (Septoria nodorum; [7]): 0%

SMILES: COc1cc(F)c(Nc2c(-c3c(F)cc(F)cc3F)c(C)nn2C)c(F)c1 [compound 78]
- Test C rating (% disease control) (Alternaria solani; [8]): 82%
- Test G rating (% disease control) (Septoria tritici; [8]): 98%
- Test I rating (% disease control) [1, 8]: 89%
- Test J rating (% disease control) [2, 8]: 91%
- Test B rating (% disease control) (Botrytis cinerea; [8]): 99%
- Test H rating (% disease control) ([3]; curative spray, 0 = no control): 0%
- Test F rating (% disease control) (Septoria nodorum; [9]): 0%

SMILES: Cc1nn(C)c(Oc2c(F)cc(C#N)cc2F)c1-c1ccccc1F [compound 305]
- Test C disease control rating (Alternaria solani): 99%
- Test G disease control rating (Septoria tritici): 100%
- Test I disease control rating [1]: 99%
- Test J disease control rating [2]: 99%
- Test B disease control rating (Botrytis cinerea): 99%
- Test H disease control rating [3]: 0%
- Test F disease control rating (Septoria nodorum; Septoria glume blotch on wheat): 94%

SMILES: COc1cc(F)c(-c2c(C)nn(C)c2Nc2ccc(C)cn2)c(F)c1 [compound 66]
- Test C rating (% disease control) (Alternaria solani; [8]): 99%
- Test G rating (% disease control) (Septoria tritici; [8]): 100%
- Test I rating (% disease control) [1, 8]: 100%
- Test J rating (% disease control) [2, 8]: 99%
- Test B rating (% disease control) (Botrytis cinerea; [8]): 100%
- Test H rating (% disease control) ([3]; curative spray, 0 = no control): 6%
- Test F rating (% disease control) (Septoria nodorum; [9]): 0%
